Assay results published in article PMC10122656, “Siglec-6 mediates the uptake of extracellular vesicles through a noncanonical glycolipid binding pocket” (Nature Communications, 2023).
Residue numbers refer to the chain shown, from its start. Values joined by “and” are separate entries in the source; they are usually repeats but may differ in a detail not shown here. Equal entries are not always repeated.

What was measured:
Experiment in all cases: Cell assay (liposome/EV binding, flow cytometry)
Format in all cases: cell-based
CD33 R119A CHO cells = biological target: T1, CD33 R119A CHO cells (Homo sapiens, UniProt P20138, R119A); settings: 3 mol% ganglioside liposomes, replicates
T1 construct: expressed in transfected cells
Procedure: (§1) Stock lipids (DSPC, Cholesterol, PEG45–DSPE) solutions were prepared by solvating the lipids in chloroform. An appropriate volume of each lipid solution was transferred to a glass test tube to reach the desired mol% of the component. The chloroform was then removed under N2 gas to yield a lipid thin film. Once dry, 100 µL of DMSO was added to the lipid-containing test tube and then the functional lipids (ganglioside, AF647–PEG45–DSPE, Siglec ligand–PEG45–DSPE, pHrodo–PEG45–DSPE, NGL) was added from their respect DMSO stock solution. The lipid mixture was then stored at −80 °C until completely frozen at which point excess DMSO was removed via lyophilization. Dry lipids were then stored at −80 °C until they were extruded. Lipid suppliers can be found in Supplementary Table 4.
(§2) Dry lipids were then hydrated in 1 mL of PBS. The lipids were then sonicated in a bath sonicator in a cycle of 1 min on, 5 min off for a total of five cycles. Liposomes were then extruded using an Avanti mini extruder first using an 800 nm filter and then a 100 nm filter yielding liposomes that were 130 ± 35 nm (Supplementary Table 5) measured using a Malvern Panalytical Zetasizer Nano S. Liposomes were stored at 4 °C.
(§3) 200,000 cells/well were plated into a 96-well U-bottom microplate and centrifuged at 300 × g for 5 min. The cells were then resuspended in 50 µL of 50 µM liposome/50 µg/mL (protein concentration) of EV solution in DMEM F12 5% FBS and incubated at 37 °C for 30 min. Excess liposomes were then removed via centrifuged at 300 × g for 5 min followed by washing the cells with FACS solution. The cells were then resuspended in (1:250 V/V) anti-Siglec-flow buffer (1% V/V FBS, 500 µM, EDTA Hank’s Balanced Salt Solution pH 7.4), solution and left to rest on ice for 30 min. The cells were then centrifuged again at 300 × g for 5 min and the cells were resuspended in FACS buffer solution and were then ready for analysis by flow cytometry. Information regarding antibody clone, catalog number supplier, label isotype, and dilution can be found in Supplementary Table 6. The Siglec-positive cells were gated on for liposome-binding analysis (Supplementary Fig. 1b).
(§4) Flow cytometry measurements were collected on a 5-laser Fortessa X-20 (BD Bioscience). All the resulting data were analyzed using FlowJo (10.5.3) software (BD Biosciences).

[1] = biological target: T2, Siglec-10 R119A CHO cells (Homo sapiens, UniProt Q96LC7, R119A); settings: Sig-10 R119A; 3 mol% ganglioside liposomes; replicates
T2 construct: expressed in transfected cells
T2 sequence (Q96LC7 17-697 R119A): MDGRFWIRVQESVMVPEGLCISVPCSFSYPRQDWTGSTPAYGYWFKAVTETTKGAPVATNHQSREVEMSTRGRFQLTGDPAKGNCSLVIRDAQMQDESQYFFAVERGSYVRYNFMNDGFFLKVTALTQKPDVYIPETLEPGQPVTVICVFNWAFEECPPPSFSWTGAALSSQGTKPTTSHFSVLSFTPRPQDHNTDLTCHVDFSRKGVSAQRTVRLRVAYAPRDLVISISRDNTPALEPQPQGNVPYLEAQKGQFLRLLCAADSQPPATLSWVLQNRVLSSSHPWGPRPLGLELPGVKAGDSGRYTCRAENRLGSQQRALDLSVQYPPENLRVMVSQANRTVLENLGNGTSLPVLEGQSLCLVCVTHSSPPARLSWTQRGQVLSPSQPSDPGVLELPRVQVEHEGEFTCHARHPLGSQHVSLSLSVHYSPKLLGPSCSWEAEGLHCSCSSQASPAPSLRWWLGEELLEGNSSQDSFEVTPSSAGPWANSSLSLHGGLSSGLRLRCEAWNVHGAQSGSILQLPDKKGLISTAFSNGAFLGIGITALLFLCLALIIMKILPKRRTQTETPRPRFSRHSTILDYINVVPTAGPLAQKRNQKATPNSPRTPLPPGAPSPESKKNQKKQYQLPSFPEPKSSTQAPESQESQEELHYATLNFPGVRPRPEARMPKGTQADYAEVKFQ
Procedure: as §1, §2, §3, §4

Siglec-10 WT CHO cells = biological target: T3, Siglec-10 WT CHO cells (Homo sapiens, UniProt Q96LC7); settings: for log10(MFI AF647) of GLL relative to log10(MFI AF647) of the same GLL against UT CHO cells (Fig. 2a): Sig-10 WT, 3 mol% ganglioside liposomes, replicates; for GLL binding to Siglec-10 (in words): cell assay, optimized liposomal formulation
T3 construct: expressed in transfected cells
T3 sequence (Q96LC7 17-697): T2 sequence (Q96LC7 17-697 R119A) with A103R
Procedure: as §1, §2, §3, §4

Siglec-15 WT CHO cells = biological target: T4, Siglec-15 WT CHO cells (Homo sapiens, UniProt Q6ZMC9, K274L); settings: Sig-15 WT; 3 mol% ganglioside liposomes; replicates
T4 construct: expressed in transfected cells
T4 sequence (Q6ZMC9 20-328 K274L): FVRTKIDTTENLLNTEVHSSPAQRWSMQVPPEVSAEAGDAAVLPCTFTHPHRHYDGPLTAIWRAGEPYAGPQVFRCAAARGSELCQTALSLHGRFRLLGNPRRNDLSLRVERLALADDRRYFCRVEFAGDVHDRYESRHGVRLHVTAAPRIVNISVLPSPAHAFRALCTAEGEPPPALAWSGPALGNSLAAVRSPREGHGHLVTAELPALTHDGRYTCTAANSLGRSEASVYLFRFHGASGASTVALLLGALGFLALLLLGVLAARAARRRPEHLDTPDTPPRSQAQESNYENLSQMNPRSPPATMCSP
Procedure: as §1, §2, §3, §4

T1 sequence (P20138 18-364 R119A): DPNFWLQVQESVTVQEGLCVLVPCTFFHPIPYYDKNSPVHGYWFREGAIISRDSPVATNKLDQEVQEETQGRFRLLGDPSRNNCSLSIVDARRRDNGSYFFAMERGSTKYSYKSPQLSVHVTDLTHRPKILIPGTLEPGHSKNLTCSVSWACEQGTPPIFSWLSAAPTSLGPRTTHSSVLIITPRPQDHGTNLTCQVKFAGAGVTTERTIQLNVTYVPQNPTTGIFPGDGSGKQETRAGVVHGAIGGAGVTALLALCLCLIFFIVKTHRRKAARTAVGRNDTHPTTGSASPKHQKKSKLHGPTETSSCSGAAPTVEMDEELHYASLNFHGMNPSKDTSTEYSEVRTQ

Substance	log10(MFI AF647) of GLL relative to log10(MFI AF647) of the same GLL against UT CHO cells (Fig. 2a) (CD33 R119A CHO cells)	log10(MFI AF647) of GLL relative to log10(MFI AF647) of the same GLL against UT CHO cells (Fig. 2a) [1]	log10(MFI AF647) of GLL relative to log10(MFI AF647) of the same GLL against UT CHO cells (Fig. 2a) (Siglec-10 WT CHO cells)	log10(MFI AF647) of GLL relative to log10(MFI AF647) of the same GLL against UT CHO cells (Fig. 2a) (Siglec-15 WT CHO cells)	GLL binding to Siglec-10 (in words) (Siglec-10 WT CHO cells)
GD1a	0 (2×) and -0.03 and -0.02	0.11 and 0.12 and 0.1 (2×)	0.32 (2×) and 0.3 and 0.31	-0.08 and -0.06 and -0.07 (2×)	–
GD1b	-0.06 and -0.07 and -0.04 and -0.05	-0.02 and -0.04 and -0.01 and 0	0.18 and 0.23 and 0.2 and 0.22	-0.14 (2×) and -0.12 (2×)	–
GD3	0 (2×) and 0.03 (2×)	0.12 (2×) and 0.09 and 0.1	0.33 (2×) and 0.31 (2×)	-0.02 and -0.01 and 0 and -0.03	novel interactions were observed
GM1	-0.15 and -0.13 and -0.21 (2×)	-0.02 and 0.03 and 0.04 and 0.09	0.32 (2×) and 0.35 and 0.26	-0.21 and -0.2 and -0.17 (2×)	novel interactions were observed
GM2	-0.01 and 0 and 0.03 (2×)	0.05 and 0.07 (2×) and 0.06	0.23 and 0.24 and 0.22 and 0.18	-0.07 and -0.05 and -0.03 (2×)	–
GM3	-0.06 (2×) and -0.03 (2×)	-0.12 (2×) and -0.13 (2×)	-0.09 (2×) and -0.02 and -0.08	-0.12 and -0.09 (2×) and -0.1	–
GM4	-0.05 (2×) and -0.02 (2×)	0 and -0.02 and 0.02 and 0.01	0.2 and 0.21 (3×)	-0.1 and -0.08 (2×) and -0.07	–
GQ1b	-0.11 (2×) and -0.1 and -0.09	-0.06 (2×) and -0.07 and -0.05	0.23 and 0.24 and 0.22 and 0.21	-0.13 and -0.12 (2×) and -0.17	–
GT1b	-0.06	0.05 and 0.03 (2×) and 0	0.42 (2×) and 0.4 and 0.39	-0.04 (3×) and -0.01	–
